{"source": "patent US20240076347A1", "about": "“METHODS FOR PREVENTING FUNGAL INFECTIONS” (Cidara Therapeutics, Inc., priority 2016, published 2024)", "key": {"[1]": {"assay": "Tissue distribution in SD rats after IV dose", "format": "in vivo", "conditions": "Sprague-Dawley, rat, 5 mg/kg IV", "experimental": "The in vitro activity of CD101 was evaluated against 153 A. fumigatus clinical isolates collected as part of the 2014 and 2015 JMI international SENTRY surveillance program. Susceptibility was determined by measuring the minimal effective concentration (MEC) values in accordance with CLSI broth microdilution guidelines (M38-A2). In vivo tissue distribution of CD101 in SD rats (N=3/time up to 5 d) after a 5 mg/kg IV CD101 dose. Plasma/tissue concentrations were measured by LC-MS/MS."}, "Candida auris": {"test_system": "Candida auris", "assay": "Murine model of disseminated candidiasis (immunosuppressed CD-1 mice), treatment", "format": "in vivo", "conditions": "20 mg/kg IP", "experimental": "Female 6-8 week old CD-1 mice were immunosuppressed with cyclophosphamide (200 mg/kg) 3 days prior to infection and 150 mg/kg 1 day post-infection. On the day of infection, mice were inoculated with 3×10^7 C. auris blastospores via the lateral tail vein. Mice were randomized into 5 groups (n=5 for colony forming units (CFU) and n=10 for survival): CD101 20 mg/kg administered by intraperitoneal (IP) injection, fluconazole 20 mg/kg administered per os (PO), amphotericin B 0.3 mg/kg IP, and a vehicle control. Treatments were administered 2 hours post-infection (Day 1) and again on Day 4 of the study for a total of 2 doses. Mice were monitored daily and a survival curve was generated. CFU groups were sacrificed on Day 8 of the study. One kidney was removed from each mouse, homogenized, plated on potato dextrose agar (PDA), and incubated at 35° C. for 2 days to determine CFU. The remaining survival mice were monitored until the end of the study (Day 14)."}, "Pneumocystis murina": {"test_system": "Pneumocystis murina", "assay": "Pneumocystis murina mouse prophylaxis study, lung nuclei and asci counts", "format": "in vivo", "experimental": "C3H/HeN mice (Charles River) were infected with P. murina by intranasal inoculation of P. murina organisms at 2×10^6/50 μl from a liquid nitrogen repository. Prior to inoculation, the P. murina were pre-incubated overnight in RPMI 1640 medium supplemented with calf serum and antibiotics to eliminate any bacterial contamination. The immune systems of the mice were suppressed by the addition of dexamethasone at 4 μ[…] to acidified drinking water (sulfuric acid at 1 ml/liter). Acidification is used to prevent secondary microbial infections. The mice were divided into a negative control group (control steroid-C/S), positive control group (trimethoprim/sulfamethoxazole-TMP/SMX) and treatment groups. Drugs to be tested were administered intraperitoneally (IP) on a mg/kg/d basis; dose, route, and frequency of administration varied depending on the agent being tested. […] Immune suppression and treatment continued for the entire 6 week study. At that time, the mice were euthanized by CO2 and lungs processed for analysis by homogenization. Slides were made from the lung homogenates at different dilutions and stained with Diff-Quik to quantify the trophic forms and cresyl echt violet to quantify the asci. Efficacy is based on the reduction of organism burden between the treatment groups and the negative control group was determined by microscopic evaluation. The nuclei and asci counts for each lung were log transformed and statistical analysis was determined by the analysis of variance (ANOVA); individual groups were compared by the Student-Newman-Keuls t test for multiple comparisons using GraphPad Prism."}, "[2]": {"assay": "Plasma protein binding by ultracentrifugation", "format": "in vitro ADME", "conditions": "mouse plasma; read-out: percent of bound CD101, mean (protein binding) (converted)", "experimental": "(§1) Concentrations in plasma ranging from 7 to 60 μg/mL were tested and resulting samples were analyzed by LC-MS/MS."}, "human plasma proteins": {"test_system": "human plasma proteins", "assay": "Plasma protein binding by ultracentrifugation", "format": "in vitro ADME", "experimental": "as §1"}, "C. albicans biofilms": {"test_system": "C. albicans biofilms", "assay": "Time lapse microscopy of biofilm formation", "format": "cell-based, Candida albicans", "conditions": "up to 16 h", "text": "The effective CD101 concentration obtained from the above experiments was used to monitor its effect on biofilm formation in real time using TLM, which involves capturing real-time images of a single frame at specific time intervals, allowing temporal monitoring of the interactions occurring between the drug and Candida biofilms. Captured images were combined in a time sequence, resulting in an animation depicting the sequence of events that occurred with the passage of time. Briefly, the discs with C. albicans (adhered for 90 min as above) were placed in a 35-mm-diameter glass-bottom Petri dish (MiTek Corp., Ashland, MA). […] Phase contrast images for this interaction were captured immediately from 0 h and followed up to 16-17 h on a Leica DMI 6000 B inverted microscope connected to a Retiga EXi Aqua camera (Q-imaging Vancouver British Columbia). To determine the structural changes in the maturing biofilm, both acquisition and analysis of a series of horizontal (xy) optical sections of the biofilm was done using Metamorph Imaging software (Molecular Devices, Downington, PA). Disc incubated with media alone was used as control."}, "C. albicans": {"test_system": "C. albicans", "assay": "In vitro susceptibility testing (CLSI M27-A3)", "format": "cell-based", "conditions": "Candida albicans, 24 h", "experimental": "Strains. Ten clinical Candida strains were used for the in vivo treatment studies, including four C. albicans, three C. glabrata, and three C. parapsilosis strains (Table 18). This group was selected to encompass phenotypic variability in susceptibility to triazoles and echinocandins and based on similar fitness in the animal model as defined by the amount of growth in control animals over 24 h. The organisms were maintained, grown, and quantified on Sabouraud's dextrose agar (SDA) plates.\nIn vitro susceptibility testing. All isolates were tested in accordance with the standards in CLSI document M27-A3. The MICs were determined visually after 24 h of incubation as the lowest concentration of drug that causes a significant diminution (≥50%) of growth compared to controls. MICs were determined on three separate occasions in duplicate."}}, "note": "Read-outs that look alike come from different tables or passages of the source. Numbered stars: 1 amine (or outer) side, 2 acyl side, 3 side chain; on linkers, the order of the positions; unused ones are H or OH. Bridge positions count the residues as written; N and C are the ends. Square brackets hold non-standard residues; d marks the D form. Peptide text beside a SMILES is read from it. * marks the point of attachment. ξ: configuration not given here. Orn(4R-OH,5R-OCH2CH2NMe3+) = C[N+](C)(C)CCO[C@@H](N[*:3])[C@H](O)C[C@H](N[*:1])C(=O)[*:2]; pTerphenylCO(4''-OnC5H11) = CCCCCOc1ccc(-c2ccc(-c3ccc(C(=O)*)cc3)cc2)cc1; hTyr(3S-OH,4S-OH) = N[C@H](C(=O)O)[C@H](O)[C@@H](O)c1ccc(O)cc1; X1 = C[C@H]1CN([*:1])C(C(=O)[*:2])C1O; Hyp = O=C(O)[C@@H]1C[C@@H](O)CN1; ξT = CC(O)C(N)C(=O)O"}
{"smiles": "CCCCCOc1ccc(-c2ccc(-c3ccc(C(=O)N[C@H]4C[C@@H](O)[C@@H](OCC[N+](C)(C)C)NC(=O)C5C(O)[C@@H](C)CN5C(=O)[C@H]([C@@H](C)O)NC(=O)[C@H]([C@H](O)[C@@H](O)c5ccc(O)cc5)NC(=O)[C@@H]5C[C@@H](O)CN5C(=O)C(C(C)O)NC4=O)cc3)cc2)cc1", "note": "(stereo partly drawn) [CD101] ({pTerphenylCO(4''-OnC5H11)}-[Orn(4R-OH,5R-OCH2CH2NMe3+)][ξT][Hyp][hTyr(3S-OH,4S-OH)]T[X1]; lactam 1-C)", "values": [{"measurement": "half-life", "setting": "[1]; plasma, read-out: t1/2 in plasma (converted)", "result": 2340, "unit": "min"}, {"measurement": "half-life", "setting": "[1]; all tissues studied, read-out: t1/2 in tissues", "result": "2400 to 4620", "unit": "min"}, {"measurement": "Kp", "setting": "[1]; liver, kidney, lung, spleen, read-out: tissue/plasma exposure ratios", "result": "~4"}, {"measurement": "average reduction in kidney CFU", "setting": "Candida auris; 2 doses (Day 1, Day 4), Day 8, compared to fluconazole, amphotericin B and vehicle groups", "result": 3, "unit": "log"}, {"measurement": "percent survival at the end of the study", "setting": "Candida auris; 2 doses, Day 14", "result": 80, "unit": "%"}, {"measurement": "asci levels (lung)", "setting": "Pneumocystis murina; 5 CD101 treatment groups vs positive control TMP/SMX", "result": "no difference in efficacy"}, {"measurement": "asci levels (lung)", "setting": "Pneumocystis murina; IP, all CD101 treatment groups, 6 weeks, vs negative control", "result": "statistically significant reduction in asci levels"}, {"measurement": "nuclei levels (lung)", "setting": "Pneumocystis murina; IP, all dose levels except 0.2 mg/kg/1×/week, 6 weeks, vs negative control", "result": "statistically significant reduction in nuclei levels"}, {"measurement": "human equivalent doses preventing Pneumocystis pneumonia in mice", "setting": "Pneumocystis murina; mice", "result": "< 50", "unit": "mg"}, {"measurement": "nuclei levels (lung)", "setting": "Pneumocystis murina; three of the CD101 treatment groups, 6 weeks", "result": "equally as efficacious as the positive control TMP/SMX"}, {"measurement": "fraction unbound at 2.5 hr", "setting": "[2]", "result": 0.008}, {"measurement": "percent of bound CD101, mean", "setting": "human plasma proteins; human plasma, 7 to 60 μg/mL", "result": 97.4, "unit": "%"}, {"measurement": "higher free fraction in human vs mouse plasma", "setting": "human plasma proteins; human vs mouse plasma", "result": "~3", "unit": "×"}, {"measurement": "biofilm formation in real time", "setting": "C. albicans biofilms; 0.25 μg/ml added to 3 h formed biofilms", "result": "remained stunted and failed to grow into mature biofilms"}, {"measurement": "biofilm formation in real time", "setting": "C. albicans biofilms; 0.25 μg/ml added to cells adhered 90 min", "result": "only adhered cells with stunted growth, which failed to grow into mature biofilms"}, {"measurement": "MIC", "setting": "C. albicans; strain 98-17", "result": 0.06, "unit": "µg/mL"}, {"measurement": "MIC", "setting": "C. albicans; strain 98-210", "result": 0.03, "unit": "µg/mL"}, {"measurement": "MIC", "setting": "C. albicans; strain 580", "result": 0.06, "unit": "µg/mL"}, {"measurement": "MIC", "setting": "C. albicans; strain K-1", "result": 0.06, "unit": "µg/mL"}]}
